Laboratory results published in article PMC3671111, “A Phase I, open-label, randomized, crossover study in three parallel groups to evaluate the effect of Rifampicin, Ketoconazole, and Omeprazole on the pharmacokinetics of THC/CBD oromucosal spray in healthy volunteers” (SpringerPlus, 2013).
Marks after values point to notes of the source that are not given here.

Key:
[1] = Phase I drug-drug interaction PK, Group 2: THC/CBD spray alone or with ketoconazole, plasma by GC-MS; settings: for AUC(0-inf) / AUC(0-t) / Cmax / Kel / t½ / Tmax: plasma; for AUC(0-inf) / AUC(0-t) / Cmax / Kel / t½: mean (SD); for Tmax: median (range)
Method: (§1) Subjects received rifampicin on Days 1-9. […] Subjects received ketoconazole on Days 1-4.
(§2) Blood samples were collected at specified times and stored on ice (except rifampicin PK samples which were stored in iced water) prior to processing and storage. Plasma samples were separated by centrifugation (approximately 2500 rpm × 15 minutes at 4°C). Samples were stored in 4 mL amber glass screw top glass vials with PTFE lined screw caps labelled with Guys Drug Research (Quintiles Limited) labels. The aliquots were stored in clearly labelled containers in a freezer set at or below -20°C, until shipped for assay. Samples were shipped on dry ice at the appropriate time-points.
(§3) The assay validation was undertaken by Advanced Bioanalytical Service Laboratories (London, UK), who developed the technique after reviewing the literature, which was based on the methodology adopted by three different groups (Foltz et al. [1983]; Goodall & Basteyns [1995]; Kemp et al. [1995]), and designed with reference to FDA guidelines for industry (FDA Guidance for Industry [2012]). The method utilised protein precipitation, solvent extraction and derivatisation for the sample preparation and then sample analysis by capillary gas chromatography and detection by a mass spectrometer (GC-MS). The validation procedure investigated the calibration model with the best regression fit over the concentration range 0.1 - 100 ng/mL for CBD, THC and 11-OH-THC, as well as precision and accuracy of the method, stability, carry-over, and specificity.
(§4) Human plasma from healthy volunteers was used to prepare the standards and quality control (QC) samples, with analytes extracted using hexane/ethyl acetate (7:1 ratio), derivatised with N,O-Bis(trimethylsilyl)trifluoroacetamide. Analytic grade THC (Sigma, UK), CBD (Sigma, UK) and 11-OH-THC (Radian International and Cerillant, UK) were obtained, and three sets of CBD, THC and 11-OH-THC were used to support the study. Deuterated THC-d3 (Sigma, UK) was used as the internal standard. The GC-MS equipment was a Hewlett Packard 6890 Gas Chromatograph attached to a Hewlett Packard 5973 Mass Selective Detector. Data handling was carried out using an MS Chemstation System and the peak area ratio of the analytes to the internal standard was calculated in Excel (2000). The concentrations were calculated from the ratio data using least squares ln(y) on ln(x) regression performed in Excel (2000), and were then checked manually. Regression analysis was undertaken to find the regression model that best described the calibration data (for details, see ([Miller & Miller 1992])).
(§5) A 0.5 mL aliquot of test sample, QC or blank plasma was placed into a test tube. The blank plasma was spiked with 50 μL of the appropriate standard solution to produce the calibration standards. 50 μL of the internal standard was added to each test tube. The samples were then diluted by the addition of 500 μL of 0.1% (w/v) ascorbic acid and the protein precipitated by the addition of 1.0 mL of acetonitrile. The proteins were removed by centrifugation and the supernatant concentrated to 1 mL using nitrogen at 50 °C. The samples were then basified by the addition of 300 μL of 5M sodium hydroxide and the analytes extracted by the addition of 2.0 mL of 7:1 hexane:ethyl acetate. After mixing for 16 minutes the tubes were centrifuged and the top layer transferred into clean 3 dram vials. The solvent was removed using nitrogen at 70 °C and the dried extract resuspended in 100 μL of BSTFA and transferred to microvials, capped and placed at 70 °C for 30 minutes to derivatise the analytes. The microvials were then cooled and loaded onto the autosampler tray for analysis where 1 μL was injected onto the GC-MS system.

[2] = Phase I drug-drug interaction PK, Group 1: THC/CBD spray alone or with rifampicin, plasma by GC-MS; settings: for AUC(0-inf) / AUC(0-t) / Cmax / Kel / t½ / Tmax: n = 12, plasma; for AUC(0-inf) / AUC(0-t) / Cmax / Kel / t½: mean (SD); for Tmax: median (range)
Method: as §1, §2, §3, §4, §5

[3] = Phase I drug-drug interaction PK, Group 3: THC/CBD spray alone or with omeprazole, plasma by GC-MS; settings: for AUC(0-inf) / AUC(0-t) / Cmax / Kel / t½ / Tmax: n = 12, plasma; for AUC(0-inf) / AUC(0-t) / Cmax / Kel / t½: mean (SD); for Tmax: median (range); for Cmax and AUC % Co-efficient of Variation (CV%) range: inter-subject variability
Method: as §1, §2, §3, §4, §5

[4] = Ketoconazole and THC/CBD spray vs THC/CBD spray alone, no-interaction range 0.80 to 1.25
[5] = THC/CBD spray 4 sprays and ketoconazole 400 mg at end of 5-day dosing period, n = 11
[6] = THC/CBD spray alone, single dose 4 sprays (10.8/10 mg), ketoconazole group, n = 12
[7] = THC/CBD spray co-administered with ketoconazole vs alone
[8] = Rifampicin and THC/CBD spray vs THC/CBD spray alone, no-interaction range 0.80 to 1.25
[9] = THC/CBD spray 4 sprays and rifampicin 600 mg after repeated daily dosing
[10] = THC/CBD spray alone, single dose 4 sprays (10.8/10 mg), rifampicin group
[11] = THC/CBD spray co-administered with rifampicin vs alone
[12] = Omeprazole and THC/CBD spray vs THC/CBD spray alone, no-interaction range 0.80 to 1.25
[13] = THC/CBD spray 4 sprays and omeprazole 40 mg at end of 6-day dosing period
[14] = THC/CBD spray alone, single dose 4 sprays (10.8/10 mg), omeprazole group
[15] = THC/CBD spray co-administered with omeprazole vs alone

11-hydroxy-THC [11-OH-THC]
Geometric mean ratio of AUC(0-inf), point estimate [1, 4]: 3.616 | Geometric mean ratio of AUC(0-t), point estimate [1, 4]: 3.823 | Geometric mean ratio of Cmax, point estimate [1, 4]: 3.074 | AUC(0-inf) [1, 5]: 95.26 (48.93) h*ng/mL | AUC(0-t) [1, 5]: 84.34 (40.18) h*ng/mL | Cmax [1, 5]: 10.92 (3.83) ng/mL | Kel [1, 5]: 0.095 (0.016) h^-1 | t½ [1, 5]: 7.48 (1.39) h | Tmax [1, 5]: 2.25 (1.50-4.13) h | AUC(0-inf) [1, 6]: 27.13 (13.34)^d h*ng/mL | AUC(0-t) [1, 6]: 21.78 (11.34) h*ng/mL | Cmax [1, 6]: 3.59 (1.67) ng/mL | Kel [1, 6]: 0.076 (0.014)^d h^-1 | t½ [1, 6]: 9.51 (2.18)^d h | Tmax [1, 6]: 1.50 (1.00-6.00) h | % change in mean Tmax [1, 7]: +50% | % change in t1/2 [1, 7]: -21% | Change in mean Cmax ([1]; THC/CBD spray with ketoconazole vs THC/CBD spray alone): +204% | Substrate for the isoenzyme CYP3A4 (conclusion from ketoconazole interaction) ([1]; suggested by increased exposure with ketoconazole): substrates | AUC, times higher after CYP3A4 inhibition by ketoconazole ([1]; vs THC/CBD spray alone): 3.8 times | Cmax, times higher after CYP3A4 inhibition by ketoconazole ([1]; vs THC/CBD spray alone): 3.1 times | Geometric mean ratio of AUC(0-inf), point estimate [2, 8]: 0.131 | Geometric mean ratio of AUC(0-t), point estimate [2, 8]: 0.099 | Geometric mean ratio of Cmax, point estimate [2, 8]: 0.140 | AUC(0-inf) [2, 9]: 2.78 (0.68)^c h*ng/mL | AUC(0-t) [2, 9]: 1.84 (0.79) h*ng/mL | Cmax [2, 9]: 0.45 (0.18) ng/mL | Kel [2, 9]: 0.189 (0.074)^c h^-1 | t½ [2, 9]: 4.19 (1.62)^c h | Tmax [2, 9]: 1.75 (1.50-2.57) h | AUC(0-inf) [2, 10]: 21.59 (8.76) h*ng/mL | AUC(0-t) [2, 10]: 18.61 (7.81) h*ng/mL | Cmax [2, 10]: 3.38 (1.95) ng/mL | Kel [2, 10]: 0.083 (0.042) h^-1 | t½ [2, 10]: 9.88 (3.89) h | Tmax [2, 10]: 1.38 (0.50-6.02) h | % change in mean t1/2 [2, 11]: -58% | % change in median Tmax [2, 11]: +27% | Change in mean Cmax ([2]; THC/CBD spray with rifampicin vs THC/CBD spray alone): -87% | Geometric mean ratio of AUC(0-inf), point estimate [3, 12]: 0.869 | Geometric mean ratio of AUC(0-t), point estimate [3, 12]: 0.869 | Geometric mean ratio of Cmax, point estimate [3, 12]: 0.866 | AUC(0-inf) [3, 13]: 19.80 (9.74) h*ng/mL | AUC(0-t) [3, 13]: 17.69 (9.05) h*ng/mL | Cmax [3, 13]: 2.84 (1.40) ng/mL | Kel [3, 13]: 0.095 (0.029) h^-1 | t½ [3, 13]: 7.98 (2.82) h | Tmax [3, 13]: 1.52 (1.23-2.50) h | AUC(0-inf) [3, 14]: 24.17 (16.47) h*ng/mL | AUC(0-t) [3, 14]: 21.52 (14.76) h*ng/mL | Cmax [3, 14]: 3.48 (2.27) ng/mL | Kel [3, 14]: 0.114 (0.062) h^-1 | t½ [3, 14]: 7.30 (2.87) h | Tmax [3, 14]: 2.00 (1.25-3.02) h | Plasma concentrations and PK parameters compared with THC/CBD spray alone ([3]; THC/CBD spray at end of 6-day omeprazole dosing): marginally lower | % change in Tmax [3, 15]: -24% | % change in t1/2 [3, 15]: +9% | Substrate for the isoenzyme CYP2C19 (conclusion from omeprazole interaction) ([3]; at the clinically relevant dose of THC/CBD spray investigated): not substrates | Cmax and AUC % Co-efficient of Variation (CV%) range ([3]; THC/CBD spray alone, omeprazole group): 48-69% | Cmax and AUC % Co-efficient of Variation (CV%) range ([3]; THC/CBD spray in combination with omeprazole): 40-67%
